SMILES strings stand for the structures.

The results in this text go back to patent US20210261561A1, “BICYCLIC HETEROCYCLE DERIVATIVES HAVING SELECTIVE BACE1 INHIBITORY ACTIVITY” (SHIONOGI & CO., LTD., priority 2018, published 2021).

For assay [1], the target named is T1, BACE1 (Homo sapiens, UniProt P56817). Put plainly: BACE1 biochemical FRET based assay (Test Example 2-1). An excerpt: (§1) This assay is a Fluorescence Resonance Energy Transfer Assay (FRET) based assay. The substrate for this assay is an APP derived 13 amino acids peptide that contains the ‘Swedish’ Lys-Met/Asn-Leu mutation of the amyloid precursor protein (APP) beta-site secretase cleavage site. This substrate also contains two fluorophores: (7-methoxycoumarin-4-yl) acetic acid (Mca) is a fluorescent donor with excitation wavelength at 320 nm and emission at 405 nm and 2,4-dinitrophenol (Dnp) is a proprietary quencher acceptor. […] Upon cleavage by BACE1, the fluorophore Mca is separated from the quenching group Dnp, restoring the full fluorescence yield of the donor. The increase in fluorescence is linearly related to the rate of proteolysis.
(§2) Briefly in a 384-well format recombinant BACE1 protein in a final concentration of 0.04 μg/mL is incubated for 450 minutes at room temperature with […] substrate in incubation buffer (final concentrations: 33.3 mM Citrate buffer pH 5.0, 0.033% PEG, 3% DMSO) in the absence or presence of compound. Next the amount of proteolysis is directly measured by fluorescence measurement at T=0′-120′ and T=450′ (excitation at 320 nm and emission at 405 nm). Results are expressed in RFU (Relative Fluorescence Units), as difference between T450 and Tx (Tx is chosen depending on the reaction speed between 0 and 120 minutes.).
A best-fit curve is fitted by a minimum sum of squares method to the plot of % Controlmin versus compound concentration. From this an IC50 value (inhibitory concentration causing 50% inhibition of activity) can be obtained.

Assay [2] concerns the target T2, BACE2 (Homo sapiens, UniProt Q9Y5Z0).
T2 sequence (Q9Y5Z0 63-518): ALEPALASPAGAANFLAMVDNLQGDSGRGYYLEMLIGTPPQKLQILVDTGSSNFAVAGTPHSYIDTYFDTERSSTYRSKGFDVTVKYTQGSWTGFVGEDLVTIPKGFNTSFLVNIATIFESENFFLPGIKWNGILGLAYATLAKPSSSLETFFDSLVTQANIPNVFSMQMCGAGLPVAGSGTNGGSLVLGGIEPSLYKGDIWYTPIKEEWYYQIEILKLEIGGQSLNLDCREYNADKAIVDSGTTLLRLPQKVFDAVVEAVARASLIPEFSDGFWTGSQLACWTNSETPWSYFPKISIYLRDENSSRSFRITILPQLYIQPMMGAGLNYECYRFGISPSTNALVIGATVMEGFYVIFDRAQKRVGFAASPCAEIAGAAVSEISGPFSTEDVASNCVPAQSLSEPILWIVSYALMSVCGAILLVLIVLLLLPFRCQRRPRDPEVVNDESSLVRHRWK
Put plainly: BACE2 biochemical FRET based assay (Test Example 2-1 (2)). As to conditions: 0.4 μg/mL BACE2, 450 minutes, Citrate buffer pH 5.0. An excerpt:
This assay is a Fluorescence Resonance Energy Transfer Assay (FRET) based assay. The substrate for this assay contains the ‘Swedish’ Lys-Met/Asn-Leu mutation of the amyloid precursor protein (APP) beta-secretase cleavage site. This substrate also contains two fluorophores: (7-methoxycoumarin-4-yl) acetic acid (Mca) is a fluorescent donor with excitation wavelength at 320 nm and emission at 405 nm and 2,4-dinitrophenol (Dnp) is a proprietary quencher acceptor. […] Upon cleavage by the beta-secretase, the fluorophore Mca is separated from the quenching group Dnp, restoring the full fluorescence yield of the donor. The increase in fluorescence is linearly related to the rate of proteolysis. Briefly in a 384-well format recombinant BACE2 protein in a final concentration of 0.4 μg/mL was incubated for 450 minutes at room temperature with 10 μM substrate in incubation buffer (final concentrations: 33.3 mM Citrate buffer pH 5.0, 0.033% PEG, 2% DMSO) in the absence or presence of compound. Next the amount of proteolysis was directly measured by fluorescence measurement at T=0 and T=450 (excitation at 320 nm and emission at 405 nm). Results were expressed in RFU (Relative Fluorescence Units), as difference between T450 and TO.
A best-fit curve was fitted by a minimum sum of squares method to the plot of % Controlmin versus compound concentration. From this an IC50 value (inhibitory concentration causing 50% inhibition of activity) can be obtained.

In assay [3] the test system is Abeta 1-37, Abeta 1-38, Abeta 1-40 and Abeta 1-42 in cerebrospinal fluid (CSF). Put plainly: Pharmacology in the beagle dog, beta-amyloid profile in CSF (Test Example 18-1). Type of assay: in vivo. The method, then:
Test compounds were tested to evaluate the effect on the beta-amyloid profile in cerebrospinal fluid (CSF) of dogs after a single dose, in combination with pharmacokinetic (PK) follow up and limited safety evaluation.
In the case of compounds shown below, two beagle dogs (1 male, 1 female) were dosed with vehicle (1 mL/kg of an aqueous solution of 20% cyclodextrin) and 4 beagle dogs (2 males and 2 females) were dosed with test compound at the doses indicated in the following Table in an aqueous 20% cyclodextrin solution with a concentration in mg/mL identical to the dose given in mg/kg) on an empty stomach.
CSF was taken in conscious animals directly from the lateral ventricle via a cannula which was screwed in the skull and covered with subcutaneous tissue and skin, before and at 4, 8, 25 and 49 hours after dosing. Eight hours after dosing the animals got access to their regular meal for 30 minutes. Blood was taken for PK follow up (0.5, 1, 2, 4, 8, 25 and 49 hours) and serum samples for biochemistry were taken before and at 8 and 25 h after dosing. The CSF samples were used for measurement of Abeta 1-37, Abeta 1-38, Abeta 1-40 and Abeta 1-42.

Assay [4] has as its target T1, BACE1. As to the kind of experiment: BACE1 biochemical FRET based assay - Method 1 (Test Example 2-2). Conditions: 0.04 μg/mL BACE1, 450 minutes, Citrate buffer pH 5.0, read-out: BACE1 Biochemical FRET based assay - Method 1 PIC50 (converted).
Source text: as §1, §2
(§3) Data are analysed using Screener (Registered trademark) (Genedata, Switzerland). Data were normalized and % inhibition=100−[(sample−LC)/(HC−LC))*100], was plotted versus the log concentration of the test compound. Curves were analysed using non-linear regression analysis and IC50 values (inhibitory concentration causing 50% inhibition of activity) were derived from individual curves.
(§4) LC=Median of the low control values
(§5) =Low control: Reaction without enzyme
(§6) HC=Median of the High control values
(§7) =High Control: Reaction with enzyme
(§8) % Inhibition=100−[(sample−LC)/(HC−LC)*100]

Assay [5] has as its target T2, BACE2. Put plainly: BACE2 biochemical FRET based assay (Test Example 2-4). As to conditions: recombinant BACE2 0.4 μg/mL, 10 μM substrate, 450 minutes, pH 5.0; read-out: BACE2 Biochemical FRET based assay pIC50 (converted).
Source text: as §1, with “assay” for “assay is an APP derived 13 amino acids peptide that”, “beta-secretase” for “beta-site secretase”, “the beta-secretase,” for “BACE1,”
Briefly in a 384-well format recombinant BACE2 protein in a final concentration of 0.4 μg/mL is incubated for 450 minutes at room temperature with 10 μM substrate in incubation buffer (final concentrations: 33.3 mM Citrate buffer pH 5.0, 0.033% PEG, 2% DMSO) in the absence or presence of compound. Next the amount of proteolysis is directly measured by fluorescence measurement at T=0 and T=450 (excitation at 320 nm and emission at 405 nm). Results are expressed in RFU (Relative Fluorescence Units), as difference between T450 and TO.
as §3, §4, §5, §6, §7, §8

The target in assay [6] is T3, BACE2 (Mus musculus, UniProt Q9JL18).
T3 construct: endogenous in cells; host or cells: MIN6 mouse insulinoma cells expressing Flag-V5-TMEM27-HA
T3 sequence (Q9JL18 63-514): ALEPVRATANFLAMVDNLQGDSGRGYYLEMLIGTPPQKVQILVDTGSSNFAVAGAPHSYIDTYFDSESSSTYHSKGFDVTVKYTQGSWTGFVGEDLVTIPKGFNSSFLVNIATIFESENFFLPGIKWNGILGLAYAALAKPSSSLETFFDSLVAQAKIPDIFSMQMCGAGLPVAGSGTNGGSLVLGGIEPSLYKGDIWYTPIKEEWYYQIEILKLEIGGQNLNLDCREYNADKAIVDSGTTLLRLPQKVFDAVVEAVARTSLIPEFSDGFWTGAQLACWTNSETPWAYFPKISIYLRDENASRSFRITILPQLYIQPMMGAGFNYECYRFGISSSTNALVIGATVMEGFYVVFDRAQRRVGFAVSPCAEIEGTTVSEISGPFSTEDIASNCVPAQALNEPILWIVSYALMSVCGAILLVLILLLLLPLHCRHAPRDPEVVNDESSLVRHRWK
Put plainly: BACE2 cellular assay in MIN6 cells, secreted TMEM27 (Test Example 2-5). Type of assay: cell-based. As to conditions: 24 hours incubation, secreted TMEM27 by MSD, read-out: Cellular MSD assay in Min6 cells TV1EV127 pIC50 (converted). The method, then:
Cellular BACE2 activity was measured by determination of the level of secreted TMEM27 into the medium of MIN6 cells using an MSD platform. The assay is based on the mouse insulinoma MIN6 cells expressing Flag-V5-TMEM27-HA. When BACE2 cleaves TMEM27 the N-terminal part of TMEM27 with the V5-Flag tag will be shed into the medium, and the amount of this cleaved product is measured with the MSD assay.
Briefly in a 96-well format the cells are incubated for 24 hours in the presence of the compound followed by the measurement of secreted TMEM27 in the medium via MSD using FLAG-L5 coating antibody and a V5 detection antibody. When TMEM27 is captured on the electrode surface of the multi-array microplate the detection antibody, conjugated with the sulfo-Tag™, is in close proximity of the surface, it generates a light via a series of reduction and oxidation reactions. The intensity of the emitted light is measured with the MSD imager to provide a quantitative measure for the analytes in the sample.
as §3, §4, §5, §6, §7, §8

In assay [7] the target is T1, BACE1. As to the kind of experiment: BACE1 cellular αLisa assay in SKNBE2 cells, Abeta 1-42 (Test Example 2-3). The format is cell-based. On the set-up: endogenous in cells; host or cells: SKNBE2 human neuroblastoma cells expressing hAPP695. Conditions: SKNBE2 cells expressing hAPP695, 18 hours incubation, read-out: Cellular αLisa assay in SKNBE2 cells Abeta 42 pIC50 (converted). The method, then: In two αLisa assays the levels of Abeta 1-42 or Abeta total produced and secreted into the medium of human neuroblastoma SKNBE2 cells are quantified. The assays are based on the human neuroblastoma SKNBE2 expressing the wild type Amyloid Precursor Protein (hAPP695). The compounds are diluted and added to these cells, incubated for 18 hours and then measurements of Abeta 1-42 or Abeta total are taken. Abeta 1-42 or Abeta total are measured by sandwich αLisa using biotinylated antibody AbN/25 attached to streptavidin coated donor beads and antibody cAb42/26 or Ab 4G8 conjugated acceptor beads for the detection of Abeta 1-42 or Abeta total respectively. In the presence of Abeta 1-42 or Abeta total, the beads come into close proximity. The excitation of the donor beads provokes the release of singlet oxygen molecules that trigger a cascade of energy transfer in the acceptor beads, resulting in light emission. Light emission is measured after 1 h incubation (excitation at […] and emission at 615 nm).
as §3
LC=Median of the low control values • =Low control: Reaction without enzyme
HC=Median of the High control values • =High Control: Reaction with enzyme
as §8

T1 sequence (P56817 46-501): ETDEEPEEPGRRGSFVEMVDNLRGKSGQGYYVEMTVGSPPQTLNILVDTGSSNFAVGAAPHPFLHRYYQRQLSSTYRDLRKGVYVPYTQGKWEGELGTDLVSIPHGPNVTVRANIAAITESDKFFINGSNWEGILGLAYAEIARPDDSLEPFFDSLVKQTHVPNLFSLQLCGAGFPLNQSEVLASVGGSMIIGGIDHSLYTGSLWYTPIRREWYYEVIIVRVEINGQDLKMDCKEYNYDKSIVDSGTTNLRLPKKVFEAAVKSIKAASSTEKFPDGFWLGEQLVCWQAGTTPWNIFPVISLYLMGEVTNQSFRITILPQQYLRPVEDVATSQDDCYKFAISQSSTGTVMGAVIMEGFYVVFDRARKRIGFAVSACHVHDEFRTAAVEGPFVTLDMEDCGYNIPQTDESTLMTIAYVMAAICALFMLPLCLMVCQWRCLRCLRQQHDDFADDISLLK

With `C[C@@H]1C[C@H]2OC(N)=N[C@](CF)(c3cc(NC(=O)c4cc5c(cn4)OC(F)(F)CO5)ccc3F)[C@H]2CO1` [Compound I-053], on BACE1 [1] (BACE2 IC50 over BACE1 IC50 (FRET)), the selectivity is 200. The IC50 on BACE1 [1] (FRET, 0.04 μg/mL BACE1, 450 minutes, Citrate buffer pH 5.0) amounted to 10 nM; against BACE2 [2], 2000 nM. Besides, the “% Decrease in Abeta 1-42 at 8 h post dosing compared to own baseline” value is listed as −31% in assay [3] (single dose 0.63 mg/kg) and −50% in assay [3] (single dose 2.5 mg/kg). In assay [3] (single dose 2.5 mg/kg, 25 h, relevant decrease = >20% decrease), the “% Decrease in Abeta 1-42 at 25 h post dosing compared to own baseline” value is on record as −27%.
For `Cc1c(C(=O)Nc2ccc(F)c(C3(CF)CCC(C)(S(C)(=O)=O)C(N)=N3)c2)ncc2c1OCC(F)(F)O2` (stereo not drawn) [II-15], the IC50 on BACE1 [4] is 11.7 nM; at BACE2 [5], 331 nM; on BACE2 [6], 427 nM; at BACE1 [7], 22.9 nM.
Turning to `CCS(=O)(=O)C1(CF)CCC(C)(c2cc(NC(=O)c3cc4c(cn3)OC(F)(F)CO4)ccc2F)N=C1N` (stereo not drawn) [II-34], the IC50 was 3.24 nM at BACE1 [4], 155 nM on BACE2 [5], 295 nM on BACE2 [6] and 3.31 nM at BACE1 [7].
For `CCS(=O)(=O)[C@]1(CF)CC[C@@](C)(c2cc(NC(=O)c3cc4c(cn3)OC(F)(F)O4)ccc2F)N=C1N` [II-35] the same measures were 5.37 nM, 295 nM, 617 nM and 9.77 nM.
